Measured values reported in US20020099035A1, “Method for preparing alpha-sulfonyl hydroxamic acid derivatives” (priority 2001, published 2002).
Counter-ions that a name gives are not always drawn.

Legend:
TACE = molecular target: T1, TACE (Homo sapiens, UniProt P78536); experiment: Procedure for measuring TACE inhibition (fluorescent peptidyl substrate); assay type: biochemical
T1 construct: purchased Immunex
Method: […] The reaction is initiated by addition of a fluorescent peptidyl substrate (final concentration 100 μM) to each well and then shaking on a shaker for 5 sec.
The reaction is read (excitation 340 nm, emission 420 nm) for 10 min. and the increase in fluorescence over time is plotted as a linear line. The slope of the line is calculated and represents the reaction rate.
The linearity of the reaction rate is confirmed (r^2>0.85). The mean (x±sem) of the control rate is calculated and compared for statistical significance (p<0.05) with drug-treated rates using Dunnett's multiple comparison test. Dose-response relationships can be generate using multiple doses of drug and IC50 values with 95% CI are estimated using linear regression.

[1] = molecular target: T2, MMP1 (human recombinant fibroblast collagenase) (Homo sapiens, UniProt P03956); experiment: In vitro collagenase assay (fluorogenic peptide substrate); assay type: biochemical; conditions: read-out: MMP1 (1C50)
T2 construct: human recombinant fibroblast collagenase (truncated, mw=18,828, WAR, Radnor)
T2 sequence (P03956 100-269 limits assumed): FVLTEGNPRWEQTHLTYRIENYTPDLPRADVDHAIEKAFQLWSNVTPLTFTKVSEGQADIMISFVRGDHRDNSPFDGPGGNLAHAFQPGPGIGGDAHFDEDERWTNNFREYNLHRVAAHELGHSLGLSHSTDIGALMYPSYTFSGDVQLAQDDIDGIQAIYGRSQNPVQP
Method: The assay is based on the cleavage of a peptide substrate ((Dnp-Pro-Cha-Gly-Cyns(Me)-His-Ala-Lys(NMa)-NH2), Peptide International, Inc.) by collagenase releasing the fluorescent NMa group which is quantitated on the fluorometer. Dnp quenches the NMa fluorescence in the intact substrate. The assay is run in HCBC assay buffer (50 mM HEPES, pH 7.0, 5 mM Ca^+2, 0.02% Brij, 0.5% Cysteine), with human recombinant fibroblast collagenase (truncated, mw=18,828, WAR, Radnor). Substrate is dissolved in methanol and stored frozen in 1 mM aliquots. Collagenase is stored frozen in buffer in 25 μM aliquots. For the assay, substrate is dissolved in HCBC buffer to a final concentration of 10 μM and collagenase to a final concentration of 5 nM. Compounds are dissolved in methanol, DMSO, or HCBC. The methanol and DMSO are diluted in HCBC to <1.0%. Compounds are added to the 96 well plate containing enzyme and the reaction is started by the addition of substrate.
The reaction is read (excitation 340 nm, emission 444 nm) for 10 min. and the increase in fluorescence over time is plotted as a linear line. The slope of the line is calculated and represents the reaction rate.
(§1) The linearity of the reaction rate is confirmed (r^2>0.85). The mean (x±sem) of the control rate is calculated and compared for statistical significance (p<0.05) with drug-treated rates using Dunnett's multiple comparison test. […]

[2] = molecular target: T3, MMP9 (human neutrophil gelatinase B) (Homo sapiens, UniProt P14780); experiment: In vitro gelatinase assay (thiopeptide substrate, DTNB); assay type: biochemical
T3 construct: from tissue; host or cells: human neutrophils
Method: The assay is based on the cleavage of the thiopeptide substrate ((Ac-Pro-Leu-Gly(2 mercapto-4 methyl-pentanoyl)-Leu-Gly-OEt), Bachem Bioscience) by the enzyme, gelatinase, releasing the substrate product which reacts calorimetrically with DTNB ((5,5′-dithio-bis(2-nitro-benzoic acid)). The enzyme activity is measured by the rate of the color increase.
The thiopeptide substrate is made up fresh as a 20 mM stock in 100% DMSO and the DTNB is dissolved in 100% DMSO as a 100 mM stock and stored in dark at room temperature. Both the substrate and DTNB are diluted together to 1 mM with substrate buffer (50 mM HEPES pH 7.5, 5 mM CaCl2) before use. The stock of human neutrophil gelatinase B is diluted with assay buffer (50 mM HEPES pH 7.5, 5 mM CaCl2, 0.02% Brij) to a final concentration of 0.15 nM. The assay buffer, enzyme, DTNB/substrate (500 μM final concentration) and vehicle or inhibitor are added to a 96 well plate (total reaction volume of 200 μl ) and the increase in color is monitored spectrophotometrically for 5 minutes at 405 nm on a plate reader.
The increase in OD405 is plotted and the slope of the line is calculated which represents the reaction rate.
as §1

MMP13 = MMP13 (Homo sapiens, UniProt P45452); experiment: MMP13 inhibition; assay type: biochemical

T1 sequence (P78536 215-824): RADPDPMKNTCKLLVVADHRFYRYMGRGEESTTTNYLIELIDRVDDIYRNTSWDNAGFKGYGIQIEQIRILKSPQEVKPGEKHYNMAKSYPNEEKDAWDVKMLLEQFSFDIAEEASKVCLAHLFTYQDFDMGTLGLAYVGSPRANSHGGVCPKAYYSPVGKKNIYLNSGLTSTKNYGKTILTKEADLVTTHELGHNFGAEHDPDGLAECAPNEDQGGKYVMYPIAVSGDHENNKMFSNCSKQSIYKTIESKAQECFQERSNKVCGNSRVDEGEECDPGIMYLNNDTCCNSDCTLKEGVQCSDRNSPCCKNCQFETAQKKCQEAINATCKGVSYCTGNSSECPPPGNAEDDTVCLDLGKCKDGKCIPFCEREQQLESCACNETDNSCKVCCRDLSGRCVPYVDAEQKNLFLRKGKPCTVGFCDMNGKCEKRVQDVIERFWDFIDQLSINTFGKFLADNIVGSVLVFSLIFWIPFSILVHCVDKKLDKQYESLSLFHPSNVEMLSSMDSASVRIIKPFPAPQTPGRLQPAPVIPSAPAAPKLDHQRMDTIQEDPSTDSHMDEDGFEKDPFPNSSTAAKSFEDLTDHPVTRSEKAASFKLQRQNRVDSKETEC
T3 sequence (P14780 94-707): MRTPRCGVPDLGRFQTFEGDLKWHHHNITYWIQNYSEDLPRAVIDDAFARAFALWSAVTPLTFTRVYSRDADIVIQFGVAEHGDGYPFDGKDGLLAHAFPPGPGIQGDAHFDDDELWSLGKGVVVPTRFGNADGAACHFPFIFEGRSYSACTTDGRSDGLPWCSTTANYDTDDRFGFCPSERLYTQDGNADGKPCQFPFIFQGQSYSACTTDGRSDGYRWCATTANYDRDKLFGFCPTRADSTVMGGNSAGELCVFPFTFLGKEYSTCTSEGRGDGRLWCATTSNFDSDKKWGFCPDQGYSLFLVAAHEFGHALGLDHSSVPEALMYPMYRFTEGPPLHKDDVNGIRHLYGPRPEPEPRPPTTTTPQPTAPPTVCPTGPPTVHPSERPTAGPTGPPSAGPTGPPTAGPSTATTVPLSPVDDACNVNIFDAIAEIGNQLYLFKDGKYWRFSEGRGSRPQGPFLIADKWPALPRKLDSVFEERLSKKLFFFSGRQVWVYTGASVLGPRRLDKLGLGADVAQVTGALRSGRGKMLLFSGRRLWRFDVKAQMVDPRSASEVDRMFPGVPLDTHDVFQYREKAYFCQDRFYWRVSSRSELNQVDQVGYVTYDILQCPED

melting point [°C] | inhibition at 10 µM (TACE) [%] | IC50 [1] [nM] | IC50 [2] [nM] | IC50 (MMP13) [nM] | Structure (SMILES)
132.9 | – | – | – | – | COc1ccc(S(=O)(=O)C2(C(=O)NO)CCCN(Cc3ccccc3)C2)cc1 (centres unmarked) (as salt: hydrochloride) [Example 18, 1-Benzyl-3-(4-methoxybenzenesulfonyl)piperidine-3-carboxylic acid hydroxamide]
– | 54 | 1300 | 732 | 140 | COc1ccc(S(=O)(=O)C2(C(=O)NO)CCCN(Cc3ccccc3)C2)cc1 (centres unmarked) [Example 18, 1-Benzyl-3-(4-methoxybenzenesulfonyl)piperidine-3-carboxylic acid hydroxamide]
